Experimental data published in the NIST ThermoML archive (doi:10.1021/je060271a).

Conditions: 343.15 K, Liquid, Vibrating tube method

CCCC(=O)OCC(COC(=O)CCC)(COC(=O)CCC)COC(=O)CCC [pentaerythritol tetrabutyrate]
Conditions	mass density [kg/m3]
20390 kPa	1023.3
20430 kPa	1023.3
20478 kPa	1023.4
20526 kPa	1023.4
20575 kPa	1023.5
20625 kPa	1023.5
20668 kPa	1023.6
20718 kPa	1023.5
20770 kPa	1023.6
20824 kPa	1023.8
20870 kPa	1023.6
20921 kPa	1023.6
20960 kPa	1023.7
20996 kPa	1023.8
21033 kPa	1023.8
21064 kPa	1023.8
21100 kPa	1023.9
21137 kPa	1023.9
21173 kPa	1023.9
21204 kPa	1023.9
21241 kPa	1024
21279 kPa	1024
21316 kPa	1024.1
21354 kPa	1024.1
21386 kPa	1024.2
21424 kPa	1024.1
21463 kPa	1024.1
21495 kPa	1024.1
21534 kPa	1024.1
21572 kPa	1024.2
21612 kPa	1024.2
21645 kPa	1024.2
21684 kPa	1024.3
21723 kPa	1024.3
21763 kPa	1024.3
21802 kPa	1024.2
21835 kPa	1024.3
21876 kPa	1024.4
21916 kPa	1024.4
21956 kPa	1024.4
21990 kPa	1024.5
22030 kPa	1024.5
22071 kPa	1024.4
22112 kPa	1024.5
22146 kPa	1024.5
22187 kPa	1024.5
22220 kPa	1024.6
22268 kPa	1024.5
22310 kPa	1024.7
22344 kPa	1024.7
22387 kPa	1024.8
22429 kPa	1024.7
22472 kPa	1024.8
22507 kPa	1024.8
22548 kPa	1024.8
22591 kPa	1024.7
22634 kPa	1024.9
22670 kPa	1024.9
22714 kPa	1025
22756 kPa	1025
22799 kPa	1024.9
22842 kPa	1025
22886 kPa	1024.9
22970 kPa	1025.2
23014 kPa	1025.2
23052 kPa	1025.2
23097 kPa	1025.2
23142 kPa	1025.2
23180 kPa	1025.2
23226 kPa	1025.3
23270 kPa	1025.4
23317 kPa	1025.4
23355 kPa	1025.3
23400 kPa	1025.4
23447 kPa	1025.5
23494 kPa	1025.6
23535 kPa	1025.4
23582 kPa	1025.6
23630 kPa	1025.6
23676 kPa	1025.6
23716 kPa	1025.7
23763 kPa	1025.7
24094 kPa	1025.8
24137 kPa	1026
24186 kPa	1026
24236 kPa	1025.8
24278 kPa	1026.1
24328 kPa	1026
24379 kPa	1026
24431 kPa	1026.1
24484 kPa	1026.1
24528 kPa	1026.2
24578 kPa	1026.2
24621 kPa	1026.3
24665 kPa	1026.2
24708 kPa	1026.3
24745 kPa	1026.3
24788 kPa	1026.3
24833 kPa	1026.2
24870 kPa	1026.4
24915 kPa	1026.4
24959 kPa	1026.4
25004 kPa	1026.4
25049 kPa	1026.5
25086 kPa	1026.6
25132 kPa	1026.5
25176 kPa	1026.6
25223 kPa	1026.7
25270 kPa	1026.7
25308 kPa	1026.7
25354 kPa	1026.8
25401 kPa	1026.7
25439 kPa	1026.8
25486 kPa	1026.9
25532 kPa	1026.7
25579 kPa	1026.8
25625 kPa	1026.9
25665 kPa	1027
26228 kPa	1027.4
26277 kPa	1027.4
26328 kPa	1027.3
26378 kPa	1027.4
26422 kPa	1027.5
26476 kPa	1027.5
26521 kPa	1027.6
26574 kPa	1027.5
26957 kPa	1027.8
27040 kPa	1027.8
27084 kPa	1027.9
27121 kPa	1027.9
27166 kPa	1028
27211 kPa	1027.9
27248 kPa	1027.9
27293 kPa	1028
27331 kPa	1028.1
27416 kPa	1028.1
27462 kPa	1028.2
27508 kPa	1028.2
27548 kPa	1028.2
27598 kPa	1028.2
27639 kPa	1028.3
27688 kPa	1028.2
27761 kPa	1028.4
27799 kPa	1028.6
27832 kPa	1028.3
27872 kPa	1028.4
27905 kPa	1028.5
27944 kPa	1028.4
27976 kPa	1028.5
28014 kPa	1028.6
28054 kPa	1028.6
28087 kPa	1028.5
28127 kPa	1028.6
28281 kPa	1028.7
28314 kPa	1028.6
28355 kPa	1028.7
28389 kPa	1028.6
28430 kPa	1028.9
28465 kPa	1028.7
28506 kPa	1028.8
28548 kPa	1028.9
28583 kPa	1028.8
28623 kPa	1028.9
28658 kPa	1029
28700 kPa	1028.9
28735 kPa	1029.1
28776 kPa	1029
28818 kPa	1029
28853 kPa	1029.1
28895 kPa	1029.1
28938 kPa	1029.2
28973 kPa	1029.2
29016 kPa	1029.2
29052 kPa	1029.3
29095 kPa	1029.1
29138 kPa	1029.2
29173 kPa	1029.4
29217 kPa	1029.4
29262 kPa	1029.3
29299 kPa	1029.4
29344 kPa	1029.3
29386 kPa	1029.4
29417 kPa	1029.3
29455 kPa	1029.4
29492 kPa	1029.5
29524 kPa	1029.5
29563 kPa	1029.6
29744 kPa	1029.6
29776 kPa	1029.7
29815 kPa	1029.6
29847 kPa	1029.7
29886 kPa	1029.7
29926 kPa	1029.8
29959 kPa	1029.8
29999 kPa	1029.8
30033 kPa	1030
30073 kPa	1029.8
30115 kPa	1029.9
30149 kPa	1029.9
30190 kPa	1029.9
30494 kPa	1030.1
30523 kPa	1030.1
30557 kPa	1030.2
30591 kPa	1030.2
30621 kPa	1030.3
30656 kPa	1030.2
30685 kPa	1030.1
30721 kPa	1030.3
30750 kPa	1030.3
30945 kPa	1030.3
30981 kPa	1030.5
31016 kPa	1030.3
31046 kPa	1030.5
31082 kPa	1030.5
31111 kPa	1030.5
31147 kPa	1030.5
31176 kPa	1030.6
31212 kPa	1030.4
31249 kPa	1030.7
31280 kPa	1030.7
31317 kPa	1030.6
31347 kPa	1030.6
31384 kPa	1030.8
31414 kPa	1030.8
31451 kPa	1030.8
31487 kPa	1030.8
31518 kPa	1030.8
31554 kPa	1030.8
31590 kPa	1030.9
31621 kPa	1030.9
31658 kPa	1031
31688 kPa	1030.9
31725 kPa	1030.9
31763 kPa	1031
31794 kPa	1031
31831 kPa	1030.9
31867 kPa	1031.1
31898 kPa	1031.1
31934 kPa	1031.1
31970 kPa	1031
32008 kPa	1031.1
32044 kPa	1031.1
32074 kPa	1031.1
32111 kPa	1031.4
32149 kPa	1031.2
32255 kPa	1031.2
32292 kPa	1031.2
32329 kPa	1031.2
32367 kPa	1031.2
32398 kPa	1031.5
32436 kPa	1031.5
32474 kPa	1031.3
32512 kPa	1031.3
32544 kPa	1031.4
32582 kPa	1031.4
32621 kPa	1031.5
32660 kPa	1031.4
32699 kPa	1031.6
32731 kPa	1031.5
32769 kPa	1031.5
32808 kPa	1031.6
32846 kPa	1031.6
32919 kPa	1031.6
32958 kPa	1031.8
33037 kPa	1031.7
33070 kPa	1031.8
33110 kPa	1031.7
33151 kPa	1031.7
33191 kPa	1031.8
33231 kPa	1032
33264 kPa	1031.8
33304 kPa	1032.1
33345 kPa	1032.1
33379 kPa	1032
33420 kPa	1032.1
33461 kPa	1032.1
33502 kPa	1032.1
33951 kPa	1032.4
33995 kPa	1032.4
34033 kPa	1032.3
34080 kPa	1032.5
34127 kPa	1032.4
34177 kPa	1032.6
34220 kPa	1032.5
34271 kPa	1032.6
34323 kPa	1032.5
34368 kPa	1032.6
34420 kPa	1032.7
34453 kPa	1032.7
34484 kPa	1032.7
34510 kPa	1032.7
34517 kPa	1032.7
34520 kPa	1032.8
